Results reported in patent publication US20130029928A1 (priority 2010, published 2013).
Where two headings read alike, the source gives them in different places.

Assay: Phase I study CXR1002-001: plasma pharmacokinetics (LC-MS/MS)
Format: in vivo, human
Conditions: for concentration at 528 hr / concentration at 528 h: Time 528 hr (Day 23); for concentration at 672 hr / concentration at 672 h: Time 672 hr (Day 29); for concentration at 696 hr / concentration at 696 h: Time 696 hr (Day 30); for concentration at 840 hr / concentration at 840 h: Time 840 hr (Day 36); for concentration at 864 hr / concentration at 864 h: Time 864 hr (Day 37); for concentration at 24 hr / concentration at 24 h: Time 24 hr (Day 2); for concentration at 168 hr / concentration at 168 h: Time 168 hr (Day 8); for concentration at 336 hr / concentration at 336 h: Time 336 hr (Day 15); for concentration at 360 hr / concentration at 360 h: Time 360 hr (Day 16)
Excerpt: PK samples, PD (fasting) samples, blood glucose, and blood triglyceride samples, were taken over a 6-week period.
Dose limiting toxicity (DLT) will be based on the toxicity assessments over the first 3-week period of the repeat dosing schedule. PK samples (single blood sample) were taken on the following basis: • Every 6 weeks during the repeat dosing phase • If dosing is interrupted or stopped, samples will be taken at intervals according to patient convenience • PK sampling for safety evaluation may take place at any time, as clinically indicated
Plasma samples were collected after the single 50 mg dose at the following timepoints: Pre-dose, and then 0.25, 0.5, 0.75, 1, 1.5, 2, 3, 4, 6, 24, 48, and 72 hours after administration and then once weekly at weeks 2, 3, 4, 5, and 6 (days 8, 15, 22, 29, and 36). For patients treated with the weekly repeat dose, plasma samples were collected at the following timepoints: Pre-dose and then 2, 3, 4 and 24 hours after administration for a total of 6 weeks. Thereafter a single sample was collected every 6 weeks for monitoring of exposure during long term treatment. Plasma samples were processed at site and stored at −80° C. prior to batch shipment to the analytical laboratory.

[1] = human, plasma, po, 1000 mg, Patient 041, 1000 mg weekly oral dose, read-out: Concentration (plasma level)
[2] = human, plasma, po, 1000 mg, Patient 042, 1000 mg weekly oral dose, read-out: Concentration (plasma level)
[3] = human, plasma, po, 1200 mg, Patient 036, 1200 mg weekly oral dose, read-out: Concentration (plasma level)
[4] = human, plasma, po, 1200 mg, Patient 037, 1200 mg weekly oral dose, read-out: Concentration (plasma level)
[5] = human, plasma, po, 1200 mg, Patient 038, 1200 mg weekly oral dose, read-out: Concentration (plasma level)

## O=C(O)C(F)(F)C(F)(F)C(F)(F)C(F)(F)C(F)(F)C(F)(F)C(F)(F)F [CXR1002]
[1]
  concentration at 528 hr: 703 µM
  concentration at 672 hr: 670 µM
  concentration at 674 hr: 546 µM
  concentration at 675 hr: 740 µM
  concentration at 696 hr: 786 µM
  concentration at 840 hr: 715 µM
  concentration at 842 hr: 738 µM
  concentration at 864 hr: 1210 µM
human, plasma, po, 1000 mg, Patient 041, 1000 mg weekly oral dose, Time 676 hr, read-out: Concentration (plasma level)
  concentration at 676 hr: 802 µM
human, plasma, po, 1000 mg, Patient 041, 1000 mg weekly oral dose, Time 843 hr, read-out: Concentration (plasma level)
  concentration at 843 hr: 1010 µM
[2]
  concentration at 2 hr: 272 µM
  concentration at 3 hr: 359 µM
  concentration at 4 hr: 281 µM
  concentration at 24 hr: 239 µM
  concentration at 168 hr: 251 µM
  concentration at 336 hr: 586 µM
  concentration at 338 hr: 645 µM
  concentration at 339 hr: 675 µM
  concentration at 340 hr: 636 µM
  concentration at 360 hr: 651 µM
  concentration at 528 hr: 1230 µM
  concentration at 672 hr: 1040 µM
  concentration at 674 hr: 1180 µM
  concentration at 675 hr: 1190 µM
  concentration at 696 hr: 1280 µM
  concentration at 840 hr: 1250 µM
  concentration at 842 hr: 1140 µM
  concentration at 864 hr: 1250 µM
human, plasma, po, 1000 mg, Patient 042, 1000 mg weekly oral dose, Time 170 hr, read-out: Concentration (plasma level)
  concentration at 170 hr: 391 µM
human, plasma, po, 1000 mg, Patient 042, 1000 mg weekly oral dose, Time 171 hr, read-out: Concentration (plasma level)
  concentration at 171 hr: 461 µM
human, plasma, po, 1000 mg, Patient 042, 1000 mg weekly oral dose, Time 172 hr, read-out: Concentration (plasma level)
  concentration at 172 hr: 436 µM
human, plasma, po, 1000 mg, Patient 042, 1000 mg weekly oral dose, Time 192 hr (Day 9), read-out: Concentration (plasma level)
  concentration at 192 hr: 502 µM
human, plasma, po, 1000 mg, Patient 042, 1000 mg weekly oral dose, Time 504 hr (Day 22), read-out: Concentration (plasma level)
  concentration at 504 hr: 765 µM
human, plasma, po, 1000 mg, Patient 042, 1000 mg weekly oral dose, Time 506 hr, read-out: Concentration (plasma level)
  concentration at 506 hr: 872 µM
human, plasma, po, 1000 mg, Patient 042, 1000 mg weekly oral dose, Time 507 hr, read-out: Concentration (plasma level)
  concentration at 507 hr: 952 µM
human, plasma, po, 1000 mg, Patient 042, 1000 mg weekly oral dose, Time 508 hr, read-out: Concentration (plasma level)
  concentration at 508 hr: 987 µM
human, plasma, po, 1000 mg, Patient 042, 1000 mg weekly oral dose, Time 843 hr, read-out: Concentration (plasma level)
  concentration at 843 hr: 1180 µM
human, plasma, po, 1000 mg, Patient 042, 1000 mg weekly oral dose, Time 844 hr, read-out: Concentration (plasma level)
  concentration at 844 hr: 1160 µM
[3]
  concentration at 2 hr: 443 µM
  concentration at 3 hr: 431 µM
  concentration at 4 hr: 361 µM
  concentration at 24 hr: 708 µM
  concentration at 168 hr: 286 µM
  concentration at 336 hr: 557 µM
  concentration at 338 hr: 840 µM
  concentration at 339 hr: 866 µM
  concentration at 340 hr: 930 µM
  concentration at 360 hr: 657 µM
  concentration at 840 h: 948 µM
  concentration at 842 h: 1250 µM
  concentration at 864 h: 1060 µM
human, plasma, po, 1200 mg, Patient 036, 1200 mg weekly oral dose, Time 170 hr, read-out: Concentration (plasma level)
  concentration at 170 h: 680 µM
human, plasma, po, 1200 mg, Patient 036, 1200 mg weekly oral dose, Time 171 hr, read-out: Concentration (plasma level)
  concentration at 171 h: 678 µM
human, plasma, po, 1200 mg, Patient 036, 1200 mg weekly oral dose, Time 172 hr, read-out: Concentration (plasma level)
  concentration at 172 h: 665 µM
human, plasma, po, 1200 mg, Patient 036, 1200 mg weekly oral dose, Time 192 hr (Day 9), read-out: Concentration (plasma level)
  concentration at 192 h: 295 µM
human, plasma, po, 1200 mg, Patient 036, 1200 mg weekly oral dose, Time 504 hr (Day 22), read-out: Concentration (plasma level)
  concentration at 504 h: 969 µM
human, plasma, po, 1200 mg, Patient 036, 1200 mg weekly oral dose, Time 506 hr, read-out: Concentration (plasma level)
  concentration at 506 h: 1140 µM
human, plasma, po, 1200 mg, Patient 036, 1200 mg weekly oral dose, Time 507 hr, read-out: Concentration (plasma level)
  concentration at 507 h: 1130 µM
human, plasma, po, 1200 mg, Patient 036, 1200 mg weekly oral dose, Time 508 hr, read-out: Concentration (plasma level)
  concentration at 508 h: 1120 µM
human, plasma, po, 1200 mg, Patient 036, 1200 mg weekly oral dose, Time 844 hr, read-out: Concentration (plasma level)
  concentration at 844 h: 1230 µM
[4]
  concentration at 2 h: 256 µM
  concentration at 3 h: 302 µM
  concentration at 4 h: 278 µM
  concentration at 24 h: 418 µM
  concentration at 168 h: 422 µM
  concentration at 336 h: 780 µM
  concentration at 338 h: 1050 µM
  concentration at 339 h: 1040 µM
  concentration at 340 h: 1030 µM
  concentration at 360 h: 1140 µM
  concentration at 528 h: 1390 µM
  concentration at 672 h: 1320 µM
  concentration at 674 h: 1460 µM
  concentration at 675 h: 1460 µM
  concentration at 696 h: 1530 µM
human, plasma, po, 1200 mg, Patient 037, 1200 mg weekly oral dose, Time 170 hr, read-out: Concentration (plasma level)
  concentration at 170 h: 634 µM
human, plasma, po, 1200 mg, Patient 037, 1200 mg weekly oral dose, Time 171 hr, read-out: Concentration (plasma level)
  concentration at 171 h: 660 µM
human, plasma, po, 1200 mg, Patient 037, 1200 mg weekly oral dose, Time 172 hr, read-out: Concentration (plasma level)
  concentration at 172 h: 712 µM
human, plasma, po, 1200 mg, Patient 037, 1200 mg weekly oral dose, Time 192 hr (Day 9), read-out: Concentration (plasma level)
  concentration at 192 h: 841 µM
human, plasma, po, 1200 mg, Patient 037, 1200 mg weekly oral dose, Time 504 hr (Day 22), read-out: Concentration (plasma level)
  concentration at 504 h: 1100 µM
human, plasma, po, 1200 mg, Patient 037, 1200 mg weekly oral dose, Time 506 hr, read-out: Concentration (plasma level)
  concentration at 506 h: 1200 µM
human, plasma, po, 1200 mg, Patient 037, 1200 mg weekly oral dose, Time 507 hr, read-out: Concentration (plasma level)
  concentration at 507 h: 1220 µM
human, plasma, po, 1200 mg, Patient 037, 1200 mg weekly oral dose, Time 508 hr, read-out: Concentration (plasma level)
  concentration at 508 h: 1390 µM
human, plasma, po, 1200 mg, Patient 037, 1200 mg weekly oral dose, Time 676 hr, read-out: Concentration (plasma level)
  concentration at 676 h: 1450 µM
[5]
  concentration at 2 h: 313 µM
  concentration at 3 h: 314 µM
  concentration at 4 h: 298 µM
  concentration at 24 h: 242 µM
  concentration at 168 h: 268 µM
  concentration at 336 h: 462 µM
  concentration at 338 h: 808 µM
  concentration at 339 h: 682 µM
  concentration at 340 h: 672 µM
  concentration at 360 h: 749 µM
  concentration at 528 h: 746 µM
  concentration at 672 h: 682 µM
  concentration at 674 h: 932 µM
  concentration at 675 h: 885 µM
  concentration at 696 h: 802 µM
  concentration at 840 h: 687 µM
  concentration at 842 h: 895 µM
  concentration at 864 h: 958 µM
human, plasma, po, 1200 mg, Patient 038, 1200 mg weekly oral dose, Time 170 hr, read-out: Concentration (plasma level)
  concentration at 170 h: 502 µM
human, plasma, po, 1200 mg, Patient 038, 1200 mg weekly oral dose, Time 171 hr, read-out: Concentration (plasma level)
  concentration at 171 h: 481 µM
human, plasma, po, 1200 mg, Patient 038, 1200 mg weekly oral dose, Time 172 hr, read-out: Concentration (plasma level)
  concentration at 172 h: 538 µM
human, plasma, po, 1200 mg, Patient 038, 1200 mg weekly oral dose, Time 192 hr (Day 9), read-out: Concentration (plasma level)
  concentration at 192 h: 493 µM
human, plasma, po, 1200 mg, Patient 038, 1200 mg weekly oral dose, Time 504 hr (Day 22), read-out: Concentration (plasma level)
  concentration at 504 h: 566 µM
human, plasma, po, 1200 mg, Patient 038, 1200 mg weekly oral dose, Time 506 hr, read-out: Concentration (plasma level)
  concentration at 506 h: 658 µM
human, plasma, po, 1200 mg, Patient 038, 1200 mg weekly oral dose, Time 507 hr, read-out: Concentration (plasma level)
  concentration at 507 h: 788 µM
human, plasma, po, 1200 mg, Patient 038, 1200 mg weekly oral dose, Time 508 hr, read-out: Concentration (plasma level)
  concentration at 508 h: 699 µM
human, plasma, po, 1200 mg, Patient 038, 1200 mg weekly oral dose, Time 676 hr, read-out: Concentration (plasma level)
  concentration at 676 h: 708 µM
human, plasma, po, 1200 mg, Patient 038, 1200 mg weekly oral dose, Time 843 hr, read-out: Concentration (plasma level)
  concentration at 843 h: 955 µM
human, plasma, po, 1200 mg, Patient 038, 1200 mg weekly oral dose, Time 844 hr, read-out: Concentration (plasma level)
  concentration at 844 h: 914 µM
In vivo
  gender difference in exposure: no gender difference
Weekly dose
  accumulation: accumulates
Weekly repeat dose (Pharmacokinetic Summary)
  maximal blood level reached: 617 µM
